Consider 14 compounds from patent US20170050980A1, “OXADIAZINE COMPOUNDS AND METHODS OF USE THEREOF” (FORUM Pharmaceuticals Inc., priority 2015, published 2017).

pIC50: −log10 of the molar value.

For the test, the system named is Aβ42. In words: In vitro cell screening assay; quantification of Aβ (1-42) peptide by sandwich ELISA. The following applies: Human neuroglioma H4 cells stably expressing human wild type APP751; compounds 0.003-10 μM, incubated overnight (16-18 h); Aβ42 in supernatant by sandwich ELISA; normalized to DMSO and DAPT; read-out: Aβ42 H4 Prot Fre IC50. The class given is cell-based. The essentials: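 Stable H4 neuroglioma line expressing human wild-type APP751; compounds 0.003-10 μM (0.33% DMSO final) added in Pro293 medium 6 h after plating, incubated overnight (16-18 h) at 37 °C. Secreted Aβ42 measured in supernatant by C-terminal-capture sandwich ELISA with 4G8-HRP detection; IC50 by sigmoidal fit, normalized to DMSO and DAPT.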
On the technique in general: ELISA stands for enzyme-linked immunosorbent assay.
As to `COc1nc(C2=NOC(C)C(c3cn(C)c4ncc(C5CC5)cc34)N2)ccc1-n1cnc(C)c1` (single isomer, unassigned; (-)) [Example 56C, (−)-5-(5-cyclopropyl-1-methyl-1H-pyrrolo [2,3-b]pyridin-3-yl)-3-(6-methoxy-5-(4-methyl-1H-imidazol-1-yl)pyridin-2-yl)-6-methyl-5,6-dihydro-4H-1,2,4-oxadiazine], the pIC50 was 6.66.

As for `COc1nc(C2=NOC(C)C(c3c4n(c5ccc(Cl)cc35)CCOC4)N2)ccc1-n1cnc(C)c1` (single isomer, unassigned; (-)) [Example 50C, (−)-8-chloro-10-(3-(6-methoxy-5-(4-methyl-1H-imidazol-1-yl)pyridin-2-yl)-6-methyl-5,6-dihydro-4H-1,2,4-oxadiazin-5-yl)-3,4-dihydro-1H-[1,4] oxazino [4,3-a] indole], the pIC50 was 6.45.

As for `COc1nc(C2=NOC(C)C(c3cccc(Cl)c3)N2)ccc1-n1cnc(Cl)c1` (single isomer, unassigned; (-)) [Example 47A, (−)-3-(5-(4-chloro-1H-imidazol-1-yl)-6-methoxypyridin-2-yl)-5-(3-chlorophenyl)-6-methyl-5,6-dihydro-4H-1,2,4-oxadiazine], the pIC50 was less than 5.52.

For `COc1nc(C2=NOC(C)C(c3cn(C)c4ncc(C(F)(F)F)cc34)N2)ccc1-n1cnc(C)c1` (single isomer, unassigned; (+)) [44B or 45B, (+)-3-(6-methoxy-5-(4-methyl-1H-imidazol-1-yl)pyridin-2-yl)-6-methyl-5-(1-methyl-5-(trifluoromethyl)-1H-pyrrolo[2,3-b]pyridin-3-yl)-5,6-dihydro-4H-1,2,4-oxadiazine], the pIC50 is 8.09.

Regarding `COc1nc(C2=NOC(C)C(c3cn(C)c4cc(F)c(F)cc34)N2)ccc1-n1cnc(C)c1` (single isomer, unassigned; (+)) [Example 39A, (+)-5-(5,6-difluoro-1-methyl-1H-indol-3-yl)-3-(6-methoxy-5-(4-methyl-1H-imidazol-1-yl)pyridin-2-yl)-6-methyl-5,6-dihydro-4H-1,2,4-oxadiazine], the pIC50 was 8.27.

For `COc1nc(C2=NOC(C)C(c3ccc(Cl)c(Cl)c3)N2)ccc1-n1cnc(C)c1` (stereo not drawn) [Example 19B, (+)-cis-5-(3,4-dichlorophenyl)-3-[6-methoxy-5-(4-methyl-1H-imidazol-1-yl)pyridin-2-yl]-6-methyl-5,6-dihydro-4H-1,2,4-oxadiazine], the pIC50 is 8.22.

For `COc1nc(C2=NOC(C)C(c3cn(C)c4ncc(C(F)(F)F)cc34)N2)ccc1-n1cnc(C)c1` (single isomer, unassigned; (-)) [44C or 45C, (−)-3-(6-methoxy-5-(4-methyl-1H-imidazol-1-yl)pyridin-2-yl)-6-methyl-5-(1-methyl-5-(trifluoromethyl)-1H-pyrrolo[2,3-b]pyridin-3-yl)-5,6-dihydro-4H-1,2,4-oxadiazine], the pIC50 was roughly 5.86.

Turning to `COc1nc(C2=NOC(C)C(c3nn(C)c4ccc(Cl)cc34)N2)ccc1-n1cnc(C)c1` (stereo not drawn) [Example 69A, (+)-(cis)-5-(5-chloro-1-methyl-1H-indazol-3-yl)-3-(6-methoxy-5-(4-methyl-1H-imidazol-1-yl)pyridin-2-yl)-6-methyl-5,6-dihydro-4H-1,2,4-oxadiazine], the pIC50 was 8.23.

As to `COc1nc(C2=NOC(C)C(c3cn(C)c4cc(F)c(Cl)cc34)N2)ccc1-n1cnc(C)c1` (single isomer, unassigned; (-)) [Example 21A, (−)-5-(5-chloro-6-fluoro-1-methyl-1H-indol-3-yl)-3-(6-methoxy-5-(4-methyl-1H-imidazol-1-yl)pyridin-2-yl)-6-methyl-5,6-dihydro-4H-1,2,4-oxadiazine], the pIC50 was 7.19.

Take `COc1nc(C2=NOC(C)C(c3cn(C)c4ncc(Cl)cc34)N2)ccc1-n1cnc(C)c1` (single isomer, unassigned; (+)) [Example 54B, (+)-5-(5-chloro-1-methyl-1H-pyrrolo [2,3-b]pyridin-3-yl)-3-(6-methoxy-5-(4-methyl-1H-imidazol-1-yl)pyridin-2-yl)-6-methyl-5,6-dihydro-4H-1,2,4-oxadiazine]: the pIC50 was 8.20.

`COc1nc(C2=NOC(C)C(c3cn(C)c4ncc(C5CC5)cc34)N2)ccc1-n1cnc(C)c1` (single isomer, unassigned; (+)) [Example 56A, (+)-5-(5-cyclopropyl-1-methyl-1H-pyrrolo [2,3-b]pyridin-3-yl)-3-(6-methoxy-5-(4-methyl-1H-imidazol-1-yl)pyridin-2-yl)-6-methyl-5,6-dihydro-4H-1,2,4-oxadiazine]: the pIC50 is 6.13.

Regarding `COc1cc(C2=NOC(C)C(c3ccc(Cl)cc3)N2)ccc1-n1cnc(C)c1` (single isomer, unassigned; (-)) [Example 43A, (−)-5-(4-chlorophenyl)-3-(3-methoxy-4-(4-methyl-1H-imidazol-1-yl)phenyl)-6-methyl-5,6-dihydro-4H-1,2,4-oxadiazine], the pIC50 is less than 5.52.

On to `COc1nc(C2=NOCC3CN(c4ccc(Cl)cc4C(F)(F)F)CCN23)ccc1-n1cnc(C)c1` (single isomer, unassigned) [Example 36B, 8-(4-chloro-2-(trifluoromethyl)phenyl)-4-(6-methoxy-5-(4-methyl-1H-imidazol-1-yl)pyridin-2-yl)-1,6,7,8,9,9a-hexahydropyrazino [1,2-d] [1,2,4] oxadiazine], for which the pIC50 was 6.51.

`COc1nc(C2=NOC(C)C(c3ccc(Cl)c(F)c3)N2)ccc1-n1cnc(C)c1` (stereo not drawn) [40-IB or 40-IIB, (+)-(cis)-5-(4-chloro-3-fluorophenyl)-3-(6-methoxy-5-(4-methyl-1H-imidazol-1-yl)pyridin-2-yl)-6-methyl-5,6-dihydro-4H-1,2,4-oxadiazine]: the pIC50 is 8.12.

As a reminder, the pIC50 is the negative decadic logarithm of the IC50, by convention in mol/L.
